The source made the active and inactive calls.
Assays:
[1] = target: T1, Corticotropin-releasing factor receptor 2/Corticotropin-releasing factor-binding protein (Homo sapiens, UniProt P24387+Q13324); assay: activators of CRF receptor 2 with binding protein – uHTS hits, confirmation (AID 602473); format: functional; conditions: read-out: EC50_Mean
T1 sequence (Q13324 whole entry): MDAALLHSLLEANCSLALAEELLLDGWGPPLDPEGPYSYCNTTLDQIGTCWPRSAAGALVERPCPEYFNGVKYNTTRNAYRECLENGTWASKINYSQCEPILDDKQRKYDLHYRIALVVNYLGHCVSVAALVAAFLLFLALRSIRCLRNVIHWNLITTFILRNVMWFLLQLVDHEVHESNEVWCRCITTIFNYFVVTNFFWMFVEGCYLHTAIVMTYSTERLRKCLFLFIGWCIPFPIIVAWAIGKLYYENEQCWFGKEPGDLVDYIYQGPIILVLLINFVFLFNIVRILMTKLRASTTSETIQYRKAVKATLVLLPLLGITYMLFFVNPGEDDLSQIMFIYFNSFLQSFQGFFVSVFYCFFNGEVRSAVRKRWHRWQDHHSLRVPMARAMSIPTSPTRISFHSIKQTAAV
T1 sequence (P24387 whole entry): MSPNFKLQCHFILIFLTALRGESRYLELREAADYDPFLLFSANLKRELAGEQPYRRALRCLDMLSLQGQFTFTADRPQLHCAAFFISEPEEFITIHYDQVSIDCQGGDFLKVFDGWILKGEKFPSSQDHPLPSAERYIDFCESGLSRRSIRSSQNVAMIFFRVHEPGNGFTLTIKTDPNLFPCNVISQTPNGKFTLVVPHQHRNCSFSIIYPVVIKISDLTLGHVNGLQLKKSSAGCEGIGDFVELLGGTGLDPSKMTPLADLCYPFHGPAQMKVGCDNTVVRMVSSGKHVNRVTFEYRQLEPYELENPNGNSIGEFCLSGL

[2] = microbe, parasite or virus in culture; format: functional; conditions: Mycobacterium tuberculosis
[3] = target: T2, High affinity choline transporter 1 (Homo sapiens, UniProt Q9GZV3); assay: CHT inhibitors, dose response, cell-based, 5-point CRC, membrane potential dye (AID 504840); format: functional
T2 sequence (Q9GZV3 whole entry): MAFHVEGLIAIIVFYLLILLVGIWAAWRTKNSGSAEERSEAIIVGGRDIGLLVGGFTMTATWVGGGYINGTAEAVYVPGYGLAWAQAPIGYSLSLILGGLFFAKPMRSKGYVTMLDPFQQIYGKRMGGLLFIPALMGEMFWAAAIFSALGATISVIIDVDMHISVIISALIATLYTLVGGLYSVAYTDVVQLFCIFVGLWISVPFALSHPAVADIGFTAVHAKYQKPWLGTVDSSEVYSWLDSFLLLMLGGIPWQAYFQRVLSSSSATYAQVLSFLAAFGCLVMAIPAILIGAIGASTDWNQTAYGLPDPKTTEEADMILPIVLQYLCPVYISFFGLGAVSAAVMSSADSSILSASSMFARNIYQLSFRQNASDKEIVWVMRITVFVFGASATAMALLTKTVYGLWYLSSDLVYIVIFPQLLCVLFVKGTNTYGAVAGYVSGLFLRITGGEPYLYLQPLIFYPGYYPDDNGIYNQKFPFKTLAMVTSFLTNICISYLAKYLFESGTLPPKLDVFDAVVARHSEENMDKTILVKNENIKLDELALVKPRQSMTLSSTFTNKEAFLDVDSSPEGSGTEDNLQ

[4] = inhibitors of intracellular T. cruzi replication, confirmation, NIH3T3 host cells, beta-gal luminescence (AID 2044); format: functional, cell-based;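 note: intracellular parasites grown in NIH/3T3 mouse fibroblasts as host cells; luminescent beta-galactosidase reporter signal from transgenic T. cruzi replicating inside host cells; inhibitors lower the luminescence signal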
[5] = cytotoxicity toward NIH3T3 fibroblasts, dose response, counter-screen, cell-based, ATP luminescence, mouse fibroblasts (AID 2010); format: functional;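 note: cells exposed to compound for about 90 hours before reading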
[6] = target: T3, Carboxy-terminal domain RNA polymerase II polypeptide A small phosphatase 1 (Homo sapiens, UniProt Q9GZU7); assay: inhibitors of CTDSP1, concentration-response testing, biochemical assay, absorbance-based, actives from ultra-high-throughput screening (AID 540297); format: functional
T3 sequence (Q9GZU7 whole entry): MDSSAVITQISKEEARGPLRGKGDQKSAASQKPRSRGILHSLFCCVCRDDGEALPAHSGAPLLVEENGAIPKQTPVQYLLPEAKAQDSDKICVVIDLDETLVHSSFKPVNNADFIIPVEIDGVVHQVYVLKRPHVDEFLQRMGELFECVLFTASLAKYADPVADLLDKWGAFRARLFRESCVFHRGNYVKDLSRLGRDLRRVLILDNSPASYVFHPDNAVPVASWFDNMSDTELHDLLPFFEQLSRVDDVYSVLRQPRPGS

[7] = target: T4, Polyadenylate-binding protein 1 (Homo sapiens, UniProt P11940); assay: PABP1 MLLE–PAM2 interaction inhibitors, dose response, miRNA deadenylation inhibitor project, biochemical, fluorescence polarization, Cy5-PAM2 peptide, secondary (AID 602260); format: functional; conditions: read-out: IC50_Mean
T4 sequence (P11940 whole entry): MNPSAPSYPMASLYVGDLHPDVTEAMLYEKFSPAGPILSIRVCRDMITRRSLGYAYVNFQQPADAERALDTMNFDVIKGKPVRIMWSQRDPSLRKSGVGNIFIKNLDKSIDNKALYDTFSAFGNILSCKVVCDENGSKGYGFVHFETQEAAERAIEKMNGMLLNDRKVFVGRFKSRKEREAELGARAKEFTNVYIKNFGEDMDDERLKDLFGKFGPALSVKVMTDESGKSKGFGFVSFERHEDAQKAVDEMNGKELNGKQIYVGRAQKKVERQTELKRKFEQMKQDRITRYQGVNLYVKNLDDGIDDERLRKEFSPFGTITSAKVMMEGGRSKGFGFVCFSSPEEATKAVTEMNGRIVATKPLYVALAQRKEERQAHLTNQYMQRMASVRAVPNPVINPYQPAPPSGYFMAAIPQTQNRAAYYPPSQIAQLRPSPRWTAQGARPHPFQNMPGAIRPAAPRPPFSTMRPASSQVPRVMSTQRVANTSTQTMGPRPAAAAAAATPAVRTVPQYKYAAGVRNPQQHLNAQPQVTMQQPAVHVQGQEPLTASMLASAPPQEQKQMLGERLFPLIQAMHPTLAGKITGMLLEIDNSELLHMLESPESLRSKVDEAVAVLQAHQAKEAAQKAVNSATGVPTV

[8] = target: T4, Polyadenylate-binding protein 1; assay: PABP1 MLLE–PAM2 binding inhibitor potency, dose response, biochemical, fluorescence polarization, FITC-PAM2 peptide (AID 602259); format: functional; conditions: read-out: IC50_Mean
cells [9] = format: functional, cell-based
cells [10] = format: functional, cell-based; remark: listed apart in the source
[11] = HepG2 cell cytotoxicity, dose response, cytotoxicity control for Shn3 inhibitor project, CellTiter-Glo, cherry-picked (AID 624134); format: functional, cell-based
[12] = control 3'UTR Renilla luciferase suppression, dose response, counter-screen for Shn3 inhibitor project, cell-based, Clone20-Shn3RL, cherry-picked (AID 624133); format: functional
[13] = Shn3 3'UTR reporter inhibitors, dose response, cell-based, Clone20 osteoblasts, firefly luciferase, cherry-picked (AID 624132); format: functional;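 note: firefly luciferase luminescence from reporter carrying the Shn3 3'UTR in osteoblasts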
[14] = inhibitors of clade B AD8 Env fusion, dose response, cell-based, cherry-pick (AID 652062); format: functional;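 note: luciferase signal from cell-cell fusion driven by HIV-1 clade B AD8 Env; potency is for inhibitors of fusion seen as a drop in luminescence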
Cytochrome P450 3A4 = Cytochrome P450 3A4 (Homo sapiens, UniProt P08684);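 note: CYP3A4 tested as one member of a cytochrome P450 panel screen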
Cytochrome P450 3A4, sequence (P08684 whole entry, the tested form may be a part): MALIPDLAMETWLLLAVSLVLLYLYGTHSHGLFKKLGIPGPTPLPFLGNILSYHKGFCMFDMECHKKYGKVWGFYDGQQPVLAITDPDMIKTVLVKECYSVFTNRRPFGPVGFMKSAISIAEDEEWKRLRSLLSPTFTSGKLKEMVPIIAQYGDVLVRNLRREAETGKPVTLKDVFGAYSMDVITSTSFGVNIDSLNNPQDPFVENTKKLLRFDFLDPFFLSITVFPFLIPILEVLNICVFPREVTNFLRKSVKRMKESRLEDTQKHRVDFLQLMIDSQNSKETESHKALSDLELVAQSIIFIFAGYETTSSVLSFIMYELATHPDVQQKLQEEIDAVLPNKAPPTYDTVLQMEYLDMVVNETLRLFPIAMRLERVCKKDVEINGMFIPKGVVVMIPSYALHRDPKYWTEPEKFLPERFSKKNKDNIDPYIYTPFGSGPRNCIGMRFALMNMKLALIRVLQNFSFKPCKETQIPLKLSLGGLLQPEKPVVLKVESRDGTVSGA

[15] = inhibitors of HIV Env-driven cell fusion, dose response, cherry-pick (AID 652057); format: functional, cell-based
[16] = ZM109 Env clade C HIV-1 fusion inhibitors, dose response, HeLa effector, CEM target cells, luciferase, cherry-pick (AID 652058); format: functional, cell-based

COc1cc(OC)cc(N(C(=O)CNC(=O)c2cccs2)C(C(=O)NCC2CCCO2)c2ccc(OC)c(OC)c2)c1 (stereo not drawn)
EC50 [1]: > 53 µM (inactive)

COc1cccc2sc3ccc(C#CC4(N)CCCCC4)cc3c(=O)c12
CC50 [2]: 20.1 µM (active)

CCCCc1cc(-c2nnc(S)o2)c2ccccc2n1
IC50 [3]: 13.2 µM (active)

COc1cc2ccccc2cc1C(=O)Nc1ccc(Cc2ccncc2)cc1
CC50 [2]: 22 µM (active) | EC50 [4]: 1.99 µM (active) | EC50 [5]: 8.08 µM (active)

Cn1nnnc1SCC1=C(C(=O)O)N2C(=O)C(NC(=O)C3CC3c3ccccc3)C2SC1 (stereo not drawn)
IC50 [6]: 11.8 µM (active)

COc1ccc(Sc2nnc(Cc3ccccc3)c3ccccc23)cc1
IC50 [7]: > 66 µM (inactive) | IC50 [8]: > 66 µM (inactive)

Cc1snc(SCC(=O)NN=C(N)COc2cccc(C(F)(F)F)c2)c1C#N
EC50 (cells [9]): > 350 µM (not active) | EC50 (cells [10]): > 350 µM (not active)

C=C[C@]1(C)C=C2C(=O)[C@@]3(O)OC(=O)[C@@]4(CCCC(C)(C)[C@H]34)[C@@]2(O)CC1 [SPHAEROPSIDIN A]
AC50 [11]: 12 µM (active) | AC50 [12]: 4.85 µM (active) | AC50 [13]: 4.98 µM (active)

CCc1cc2c(NCc3ccco3)ncnc2s1
AC50 [14]: 32.3 µM (active) | AC50 (Cytochrome P450 3A4): 25.1 µM (inconclusive) | IC50 [3]: 10 µM (active)

CCc1cnccc1CCC(=O)Nc1ccccc1C
EC50 (cells [9]): > 350 µM (not active) | EC50 (cells [10]): 52 µM (active)

O=C(C[C@H]1C[C@@H]2c3cc(NS(=O)(=O)c4ccc(F)cc4)ccc3O[C@@H]2[C@H](CO)O1)NCc1ccc(Cl)cc1
AC50 [14]: 4.14 µM (active) | AC50 [15]: 1.72 µM (active) | AC50 [16]: 5.21 µM (active)

CCCCn1c(NCc2ccc3c(c2)OCO3)nc2ccccc21
CC50 [2]: 39.6 µM (active)
